Test results taken from patent EP0437336B1, “Biophosphoryl hydrazines and their use as pesticides” (priority 1990, dated 1991).
Converted amounts (≈) assume the structure as drawn. Read-outs that look alike come from different tables or passages of the source.

Experiments:
Southern Armyworm = test: Biological Method D: Foliar Insecticidal Activity Test, Southern Armyworm test; format: in vivo, Spodoptera eridania; parameters: key: I = inactive at concentration listed
[1] = system: southern corn rootworm, Diabrotica undecimpunctata howardi; test: Biological Method A: Corn Rootworm Screening Test (treated non-aggressive soil); settings: soil concentration giving 90% mortality, 10 days at 27°C
Two-Spotted Spider Mite = test: Biological Method D: Foliar Insecticidal Activity Test, mite test; format: in vivo, Tetranychus urticae; parameters: key to LC50 TSM: I = inactive at concentration listed; settings: Method D foliar test, Two-Spotted Spider Mite; for LC50: Tetranychus urticae, read-out: LC50 TSM
[2] = system: southern corn rootworm, Diabrotica undecimpunctata howardi; settings: for foliar systemic nonagressive Method B crw % control at 0.56 kg/ha (0.5 lb/acre): percent control relative to infested check, from root damage ratings, 14 days post-spraying; for pest or weed control at 560 g/ha: Diabrotica undecimpunctata, in Zea mays, foliar, 336 h, read-out: foliar systemic nonagressive Method B crw % control at 0.56 kg/ha (0.5 lb/acre)
[3] = system: southern corn rootworm, Diabrotica undecimpunctata howardi; settings: at-planting soil application
Boll Weevil [4] = test: Biological Method D: Foliar Insecticidal Activity Test, boll weevil test; format: in vivo, Anthonomous grandis; settings: Method D foliar test, Boll Weevil
Mexican Bean Beetle = test: Biological Method D: Foliar Insecticidal Activity Test, Mexican Bean Beetle test; format: in vivo, Epilachna varivestis; settings: Epilachna varivestis, Method D foliar test, Mexican Bean Beetle
Boll Weevil [5] = test: Biological Method D: Foliar Insecticidal Activity Test, boll weevil test; format: in vivo, Anthonomous grandis; parameters: key: I = inactive at concentration listed
Green Peach Aphid = test: Biological Method D: Foliar Insecticidal Activity Test, aphid test; format: in vivo, Myzus persicae; parameters: key: I = inactive at concentration listed
[6] = 48 hrs, read-out: LC50 BB 48 hrs.
[7] = 96 hrs, read-out: LC50 BB 96 hrs

CCOP(=S)(NNP(=S)(OCC)OC(C)CC)OCC (stereo not drawn) [Compound 8]
LC50 AW 48 hrs (Southern Armyworm): I
LC50 AW 96 hrs (Southern Armyworm): I
primary nonagressive Method A crw LC90 [1]: <0.1 ppm
LC50 (Two-Spotted Spider Mite): 335 µg/mL (≈ 919 µM)
foliar systemic nonagressive Method B crw % control at 0.56 kg/ha (0.5 lb/acre) [2]: 53%
secondary aggressive Method C crw LC50 ([3]; rated 17 days post-infestation): 0.81 kg/ha
secondary aggressive Method C crw LC50 ([3]; value in brackets): 0.72 lb/acre
LC50 BW 96 hrs (Boll Weevil [4]): 740 ppm
LC50 (Mexican Bean Beetle; [6]): 500 µg/mL (≈ 1370 µM)
LC50 (Mexican Bean Beetle; [7]): 84 µg/mL (≈ 231 µM)
LC50 BW 48 hrs (Boll Weevil [5]): I
LC50 GPA (Green Peach Aphid): I

CCOP(=S)(NNP(=S)(OC(C)C)OC(C)C)OCC [Compound 9, reference compound]
LC50 AW 48 hrs (Southern Armyworm): I
LC50 AW 96 hrs (Southern Armyworm): I
primary nonagressive Method A crw LC90 [1]: 0.41 ppm
LC50 (Two-Spotted Spider Mite): 76 µg/mL (≈ 209 µM)
foliar systemic nonagressive Method B crw % control at 0.56 kg/ha (0.5 lb/acre) [2]: 64%
secondary aggressive Method C crw LC50 ([3]; rated 17 days post-infestation): 1.1 kg/ha
secondary aggressive Method C crw LC50 ([3]; value in brackets): 0.98 lb/acre
LC50 (Mexican Bean Beetle; [6]): 300 µg/mL (≈ 823 µM)
LC50 (Mexican Bean Beetle; [7]): 150 µg/mL (≈ 412 µM)
LC50 BW 48 hrs (Boll Weevil [5]): I
LC50 BW 96 hrs (Boll Weevil [5]): I
LC50 GPA (Green Peach Aphid): I

CCOP(=S)(NNP(=S)(OCC)OCC(C)C)OCC (stereo not drawn) [Compound 11, N-(O,O-diethylthiophosphoryl) N′-(O-ethyl O-isobutylthiophosphoryl) hydrazine]
LC50 AW 48 hrs (Southern Armyworm): I
LC50 AW 96 hrs (Southern Armyworm): I
primary nonagressive Method A crw LC90 [1]: <0.1 ppm
LC50 TSM (Two-Spotted Spider Mite): I
foliar systemic nonagressive Method B crw % control at 0.56 kg/ha (0.5 lb/acre) [2]: 53%
secondary aggressive Method C crw LC50 ([3]; rated 17 days post-infestation): 0.36 kg/ha
secondary aggressive Method C crw LC50 ([3]; value in brackets): 0.32 lb/acre
LC50 BW 96 hrs (Boll Weevil [4]): 740 ppm
LC50 (Mexican Bean Beetle; [6]): 150 µg/mL (≈ 412 µM)
LC50 (Mexican Bean Beetle; [7]): 60 µg/mL (≈ 165 µM)
LC50 BW 48 hrs (Boll Weevil [5]): I
LC50 GPA (Green Peach Aphid): I

CCCOP(=S)(NNP(=S)(OCCC)OCCC)OCCC [Compound 14, reference compound]
LC50 AW 48 hrs (Southern Armyworm): I
LC50 AW 96 hrs (Southern Armyworm): I
primary nonagressive Method A crw LC90 [1]: 0.39 ppm
LC50 TSM (Two-Spotted Spider Mite): I
pest or weed control at 560 g/ha [2]: 46%
secondary aggressive Method C crw LC50 ([3]; rated 17 days post-infestation): 1.12 kg/ha
secondary aggressive Method C crw LC50 ([3]; value in brackets): 1.0 lb/acre
LC50 (Mexican Bean Beetle; [6]): 500 µg/mL (≈ 1270 µM)
LC50 (Mexican Bean Beetle; [7]): 52 µg/mL (≈ 132 µM)
LC50 BW 48 hrs (Boll Weevil [5]): I
LC50 BW 96 hrs (Boll Weevil [5]): I
LC50 GPA (Green Peach Aphid): I

CCCOP(=S)(NNP(=S)(OC(C)C)OC(C)C)OCCC [Compound 16, reference compound]
LC50 AW 48 hrs (Southern Armyworm): I
LC50 AW 96 hrs (Southern Armyworm): I
primary nonagressive Method A crw LC90 [1]: 0.95 ppm
LC50 TSM (Two-Spotted Spider Mite): I
pest or weed control at 560 g/ha [2]: 46%
secondary aggressive Method C crw LC50 ([3]; rated 17 days post-infestation): 1.03 kg/ha
secondary aggressive Method C crw LC50 ([3]; value in brackets): 0.92 lb/acre
LC50 (Mexican Bean Beetle; [6]): 150 µg/mL (≈ 382 µM)
LC50 (Mexican Bean Beetle; [7]): 62 µg/mL (≈ 158 µM)
LC50 BW 48 hrs (Boll Weevil [5]): I
LC50 BW 96 hrs (Boll Weevil [5]): I
LC50 GPA (Green Peach Aphid): I

CCCCOP(=S)(NNP(=S)(OCCC)OCCC)OCC (stereo not drawn) [Compound 17]
LC50 AW 48 hrs (Southern Armyworm): I
LC50 AW 96 hrs (Southern Armyworm): I
primary nonagressive Method A crw LC90 [1]: 1.1 ppm
LC50 TSM (Two-Spotted Spider Mite): I
pest or weed control at 560 g/ha [2]: 38%
secondary aggressive Method C crw LC50 ([3]; rated 17 days post-infestation): 1.02 kg/ha
secondary aggressive Method C crw LC50 ([3]; value in brackets): 0.91 lb/acre
LC50 (Mexican Bean Beetle; [6]): 150 µg/mL (≈ 382 µM)
LC50 (Mexican Bean Beetle; [7]): 62 µg/mL (≈ 158 µM)
LC50 BW 48 hrs (Boll Weevil [5]): I
LC50 BW 96 hrs (Boll Weevil [5]): I
LC50 GPA (Green Peach Aphid): I

CCCOP(=S)(NNP(=S)(OCC)OCC(C)C)OCCC (stereo not drawn) [Compound 18, N-(O,O-dipropylthiophosphoryl) N′-(O-ethyl O-isobutylthiophosphoryl) hydrazine]
LC50 AW 48 hrs (Southern Armyworm): I
LC50 AW 96 hrs (Southern Armyworm): I
primary nonagressive Method A crw LC90 [1]: <0.1 ppm
LC50 TSM (Two-Spotted Spider Mite): I
pest or weed control at 560 g/ha [2]: 61%
secondary aggressive Method C crw LC50 ([3]; rated 17 days post-infestation): 0.36 kg/ha
secondary aggressive Method C crw LC50 ([3]; value in brackets): 0.32 lb/acre
LC50 (Mexican Bean Beetle; [6]): 150 µg/mL (≈ 382 µM)
LC50 (Mexican Bean Beetle; [7]): 78 µg/mL (≈ 199 µM)
LC50 BW 48 hrs (Boll Weevil [5]): I
LC50 BW 96 hrs (Boll Weevil [5]): I
LC50 GPA (Green Peach Aphid): I

CCCOP(=S)(NNP(=S)(OCC)OC(C)CC)OCCC (stereo not drawn) [Compound 19, N-(O,O-dipropylthiophosphoryl) N′-(O-ethyl O-secbutylthiophosphoryl) hydrazine]
LC50 AW 48 hrs (Southern Armyworm): I
LC50 AW 96 hrs (Southern Armyworm): I
primary nonagressive Method A crw LC90 [1]: <0.1 ppm
LC50 TSM (Two-Spotted Spider Mite): I
pest or weed control at 560 g/ha [2]: 54%
secondary aggressive Method C crw LC50 ([3]; rated 17 days post-infestation): 0.28 kg/ha
secondary aggressive Method C crw LC50 ([3]; value in brackets): 0.25 lb/acre
LC50 (Mexican Bean Beetle; [6]): 78 µg/mL (≈ 199 µM)
LC50 (Mexican Bean Beetle; [7]): 62 µg/mL (≈ 158 µM)
LC50 BW 48 hrs (Boll Weevil [5]): I
LC50 BW 96 hrs (Boll Weevil [5]): I
LC50 GPA (Green Peach Aphid): I

CCOP(=S)(NNP(=S)(OCC)SC(C)C)OCC (stereo not drawn) [Compound 20]
LC50 AW 48 hrs (Southern Armyworm): I
LC50 AW 96 hrs (Southern Armyworm): I
primary nonagressive Method A crw LC90 [1]: 0.40 ppm
LC50 TSM (Two-Spotted Spider Mite): I
foliar systemic nonagressive Method B crw % control at 0.56 kg/ha (0.5 lb/acre) [2]: 50%
secondary aggressive Method C crw LC50 ([3]; rated 17 days post-infestation): 1.01 kg/ha
secondary aggressive Method C crw LC50 ([3]; value in brackets): 0.90 lb/acre
LC50 (Mexican Bean Beetle; [6]): 110 µg/mL (≈ 300 µM)
LC50 (Mexican Bean Beetle; [7]): 52 µg/mL (≈ 142 µM)
LC50 BW 48 hrs (Boll Weevil [5]): I
LC50 BW 96 hrs (Boll Weevil [5]): I
LC50 GPA (Green Peach Aphid): I

CCCNP(=S)(NNP(=S)(OCC)OCC)OCC (stereo not drawn) [Compound 24]
LC50 AW 48 hrs (Southern Armyworm): I
LC50 AW 96 hrs (Southern Armyworm): I
primary nonagressive Method A crw LC90 [1]: 1.1 ppm
LC50 TSM (Two-Spotted Spider Mite): I
foliar systemic nonagressive Method B crw % control at 0.56 kg/ha (0.5 lb/acre) [2]: 38%
LC50 BW 96 hrs (Boll Weevil [4]): 380 ppm
LC50 (Mexican Bean Beetle; [6]): 27 µg/mL (≈ 77.3 µM)
LC50 (Mexican Bean Beetle; [7]): 31 µg/mL (≈ 88.7 µM)
LC50 BW 48 hrs (Boll Weevil [5]): I
LC50 GPA (Green Peach Aphid): I

CCOP(=S)(NNP(=S)(OCC)O[C@H]1C[C@@H](C)CC[C@@H]1C(C)C)OCC (stereo partly drawn) [Compound 35]
LC50 AW 48 hrs (Southern Armyworm): I
LC50 AW 96 hrs (Southern Armyworm): I
primary nonagressive Method A crw LC90 [1]: 0.77 ppm
LC50 TSM (Two-Spotted Spider Mite): I
pest or weed control at 560 g/ha [2]: 38%
LC50 (Mexican Bean Beetle; [6]): 250 µg/mL (≈ 560 µM)
LC50 (Mexican Bean Beetle; [7]): 52 µg/mL (≈ 116 µM)
LC50 BW 48 hrs (Boll Weevil [5]): I
LC50 BW 96 hrs (Boll Weevil [5]): I
LC50 GPA (Green Peach Aphid): I

CCOP(=S)(NNP(=S)(OCC)OCC(C)(C)C)OCC (stereo not drawn) [Compound 38, N-(O,O-diethylthiophosphoryl) N′-(O-ethyl O-neopentylthiophosphoryl) hydrazine]
LC50 AW 48 hrs (Southern Armyworm): I
LC50 AW 96 hrs (Southern Armyworm): I
primary nonagressive Method A crw LC90 [1]: 0.07 ppm
LC50 (Two-Spotted Spider Mite): 150 µg/mL (≈ 396 µM)
pest or weed control at 560 g/ha [2]: 46%
secondary aggressive Method C crw LC50 ([3]; rated 17 days post-infestation): 0.5 kg/ha
secondary aggressive Method C crw LC50 ([3]; value in brackets): 0.45 lb/acre
LC50 BW 48 hrs (Boll Weevil [4]; 48 hrs): 740 ppm
LC50 BW 96 hrs (Boll Weevil [4]): 740 ppm
LC50 (Mexican Bean Beetle; [6]): 60 µg/mL (≈ 159 µM)
LC50 (Mexican Bean Beetle; [7]): 60 µg/mL (≈ 159 µM)
LC50 GPA (Green Peach Aphid): I

CCOP(=S)(NNP(=S)(OCC)OC(C)(C(F)(F)F)C(F)(F)F)OCC (stereo not drawn) [Compound 39]
LC50 AW 48 hrs (Southern Armyworm): I
LC50 AW 96 hrs (Southern Armyworm): I
primary nonagressive Method A crw LC90 [1]: 0.71 ppm
LC50 (Two-Spotted Spider Mite): 150 µg/mL (≈ 318 µM)
pest or weed control at 560 g/ha [2]: 46%
LC50 (Mexican Bean Beetle; [6]): 31 µg/mL (≈ 65.6 µM)
LC50 (Mexican Bean Beetle; [7]): 150 µg/mL (≈ 318 µM)
LC50 BW 48 hrs (Boll Weevil [5]): I
LC50 BW 96 hrs (Boll Weevil [5]): I
LC50 GPA (Green Peach Aphid): I
